Measurements: publication PMC3515450, “Mechanistic and Structural Understanding of Uncompetitive Inhibitors of Caspase-6” (PLoS ONE, 2012)

Key:
[1] = target: T1, caspase-6 (Homo sapiens, UniProt P55212); assay: Steady-state Michaelis-Menten kinetic analysis of caspase-6; format: biochemical
T1 construct: Residues 24-179 and 194-293 from caspase-6 cDNA (Origene) were cloned into pET-24b and pET-23b vectors; 6x histidine tag (C); made in house; host or cells: E. coli BL21 (DE3) pLysS
T1 sequence (P55212 24-179): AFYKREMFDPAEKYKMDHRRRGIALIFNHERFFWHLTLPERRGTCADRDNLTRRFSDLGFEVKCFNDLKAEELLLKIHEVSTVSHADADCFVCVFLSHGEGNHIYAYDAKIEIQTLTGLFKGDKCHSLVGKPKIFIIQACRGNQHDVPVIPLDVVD
T1 sequence (P55212 194-293): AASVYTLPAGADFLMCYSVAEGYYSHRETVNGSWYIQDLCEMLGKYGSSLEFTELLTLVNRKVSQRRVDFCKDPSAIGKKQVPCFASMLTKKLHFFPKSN
Method: The in vitro enzymatic caspase assays utilize synthetic tetrapeptide substrates labeled with the fluorophores Rhodamine110 (R110) or 7-amino-4-methylcoumarin (AMC) at the P1 aspartic acid (Asp) residue. All assays were performed in 384-well plates in 12 µL reaction volume consisting of enzyme, substrate and indicated concentration of inhibitor or DMSO in assay buffer (50 mM HEPES [pH 7.0], 25 mM MgSO4, 0.5 mM EGTA, 5 mM Glutathione (GSH), 0.01% Triton X-100 containing 0.1% Bovine Gamma Globulin (BGG)). All inhibitors were serially diluted in 100% DMSO prior to dilution in assay buffer and transfer to assay plate. DMSO was diluted into assay buffer similarly for blank wells (no enzyme or compound) and final DMSO concentration was 1%. The concentration of caspase-6 used in enzymatic reactions typically varied between 1–10 nM depending on substrate used. Unless otherwise indicated, substrate concentration was within 3-fold of the determined Kmapparent (5 µM (Ac-VEID)2R110 [Kmapp = 8 µM]; 5 µM (Ac-DEVD)2R110 [Kmapp = 8 µM]; 25 µM (Ac-IETD)2R110 [Kmapp = 70 µM]; 25 µM (Ac-WEHD)2R110 [Kmapp = 70 µM]; 10µM Ac-VEID-AMC [Kmapp = 16µM]; 5 µM Ac-VEID-R110 [Kmapp = 8 µM]). The concentration of substrate utilized in selectivity assays for each caspase isoform was also held as close to Kmapparent as reasonably achievable (Table S1). Caspases-3 and -7 were expressed and purified at Genentech as the catalytic domain consisting of large p20 and small p10 subunits without prodomain. For all caspase enzymatic assays, the reaction plate was incubated at room temperature for 40 minutes and then read on Envision (Perkin Elmer) fluorescent plate reader at excitation/emission wavelengths of 485/535 nm (R110) or 350/450 nm (AMC).
The endpoint fluorescent emission (RFU) in each well was plotted as a function of inhibitor concentration and the 50% inhibition (IC50) values were determined using a nonlinear least squares fit of the data to a four parameter equation using Prism 5.0 software (GraphPad Software, San Diego, CA). […] Ki values for Compound 3 were calculated using this equation: Ki = IC50/(Km/[S] +1). Concentration-response curves for each inhibitor were normalized to zero and 100% based on no enzyme or DMSO control, respectively. For steady-state kinetic analysis, initial reaction velocity (RFU/minute) was plotted against substrate concentration at each inhibitor concentration and the data was fit to a hyperbolic Michaelis-Menten model using Prism 5.0 software. Km (µM) and Vmax (RFU/minute) were calculated by using this equation: v = Vmax • [S]/Km+[S] where v = initial reaction velocity at indicated substrate concentration (S). Vmax values were normalized to zero and 100% based on no enzyme or DMSO control, respectively.

[2] = target: T1, caspase-6; assay: Cleavage of Lamin A by purified human caspase-6 (western blot); format: biochemical; conditions: 100 µM concentration
Method: The assay to monitor cleavage of Lamin A by purified human caspase-6 is described in Experimental Procedures S1.
Cleavage of Lamin A by purified human Caspase-6: Recombinant caspase-6 was prepared at 6.6 nM final concentration in assay buffer (40 mM HEPES [pH 7.2], 100 mM NaCl, 1 mM EDTA, 2 mM DTT, 0.1% CHAPS, 3% DMSO), and pre-incubated at 37 °C with increasing concentrations (as indicated) of the compound to be assayed. After 30 minutes, GST-tagged Lamin A substrate (Abnova, Cat# H00004000-P01) was added to the reaction mix at a final concentration of 0.33 µM and the incubation was continued for 2 h at 37 °C. Samples were boiled for 5 min to terminate the proteolytic cleavage reaction before they were resolved by SDS-PAGE (10-20% Tris-glycine gel) and transferred to nitrocellulose. The blot was probed with mouse anti-Lamin A antibody (Abnova # H00004000-B01P) and detected with IRDye800 anti-mouse antibody (LI-COR #926-32210). […] Imaging was done on the LI-COR Odyssey® Infrared Imaging System using the 800 nm channel.

Vmax (% of DMSO control) for (VEID)2R110 ([1]; 3 nM of 3): 77.51 % of DMSO control | Vmax (% of DMSO control) for (VEID)2R110 ([1]; 10 nM of 3): 55.35 % of DMSO control | Vmax (% of DMSO control) for (VEID)2R110 ([1]; 30 nM of 3): 31.09 % of DMSO control | Vmax (% of DMSO control) for (VEID)2R110 ([1]; 100 nM of 3): 14.10 % of DMSO control | mechanism of inhibition ([1]; (DEVD)2R110 substrate): uncompetitive | mechanism of inhibition ([1]; (VEID)2R110 substrate): uncompetitive | inhibition of caspase-6 cleavage of recombinant Lamin A [2]: did not inhibit
Compound: COc1ccc(-c2cc(C(=O)N[C@@H](CO)Cc3cccc(C#N)c3)co2)cc1OC [Compound 3]
